Patent US6835382B2, “Ii peptide therapeutics to enhance antigen presentation” (University of Massachusetts, priority 1996, dated 2004)
Non-standard residues stand in square brackets, D forms with d. Cit = NC(=O)NCCC[C@H](N)C(=O)O; Orn = NCCC[C@H](N)C(=O)O

Assays:
[1] = system: murine E^k MHC class II allele; experiment: simultaneous assay, E^k allele (CH27 APC, TPc9.1 T hybridoma, THMCC82-103 or PGCC81-104); format: cell-based
In short: (§1)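 Read-out is [3H]TdR incorporation into HT-2 indicator cells exposed to supernatant from a 24 h primary culture. That culture combined mitomycin C-treated APC (5×10^6 cells/mL, 0.025 mg/mL mitomycin C, 20 min, 37° C), peptide, effector compound and T hybridoma, all added at once.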

[2] = molecular target: T1, murine E^d MHC class II allele (Mus musculus, UniProt P01904+P01915); experiment: simultaneous assay, E^d allele (A20 APC, G28.C9 T hybridoma, HEL106-116; HT-2 [3H]TdR readout); format: cell-based; set-up: The A20 and CH27 B cell lymphoma lines express H-2^d and H-2^k alleles, respectively; endogenous in cells; host or cells: A20 B cell lymphoma (mitomycin C-treated or paraformaldehyde-fixed)
T1 sequence (P01904 26-255): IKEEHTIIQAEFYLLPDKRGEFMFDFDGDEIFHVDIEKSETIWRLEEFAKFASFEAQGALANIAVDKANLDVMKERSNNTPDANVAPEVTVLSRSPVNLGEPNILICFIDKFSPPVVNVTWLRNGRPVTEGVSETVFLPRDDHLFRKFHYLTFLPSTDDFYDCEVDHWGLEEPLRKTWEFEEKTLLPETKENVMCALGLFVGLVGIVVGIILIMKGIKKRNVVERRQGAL
T1 sequence (P01915 27-264 limits assumed): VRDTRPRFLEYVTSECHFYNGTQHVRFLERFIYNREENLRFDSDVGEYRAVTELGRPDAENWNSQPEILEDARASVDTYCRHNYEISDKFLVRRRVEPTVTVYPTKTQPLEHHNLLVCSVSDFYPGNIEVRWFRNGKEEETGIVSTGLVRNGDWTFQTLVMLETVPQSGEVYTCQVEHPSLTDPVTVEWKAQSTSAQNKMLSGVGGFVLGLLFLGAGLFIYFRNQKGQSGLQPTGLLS
In short: as §1

[3] = Table 16, AE peptide 4 μM, supernatant 1:8
[4] = Table 1, AE peptide 16 μM (second value), 0.075 μM THMCC82-103, supernatant 1:2
[5] = Table 1, AE peptide 64 μM (first value), 0.075 μM THMCC82-103, supernatant 1:2
[6] = Table 1, AE peptide 16 μM (second value), 0.4 μM HEL106-116, supernatant 1:4
[7] = Table 1, AE peptide 64 μM (first value), 0.4 μM HEL106-116, supernatant 1:4
[8] = Table 13, AE peptide 1 μM (fourth value), supernatant 1:4
[9] = Table 13, AE peptide 4 μM (third value), supernatant 1:4
[10] = Table 13, AE peptide 16 μM (second value), supernatant 1:4
[11] = Table 13, AE peptide 64 μM (first value), supernatant 1:4
[12] = Table 14, AE peptide 64 μM, supernatant 1:4
[13] = Table 15, AE peptide 16 μM, supernatant 1:4
[14] = Table 7, AE peptide 64 μM, supernatant 1:4, normalized by a factor of 5
[15] = Table 7, AE peptide 64 μM, supernatant 1:4
[16] = Table 4, AE109 homolog 64 μM, supernatant 1:2
[17] = Table 18, AE peptide 64 μM, supernatant 1:4
[18] = Table 2, AE peptide 64 μM, 0.05 μM PGCC81-104, supernatant 1:2
[19] = Table 2, AE peptide 64 μM, 0.05 μM HEL106-116, supernatant 1:2
[20] = Table 11, AE peptide 64 μM, supernatant 1:4
[21] = Table 11, AE peptide 64 μM, supernatant 1:8

Ac-LRM M LPK-NH2 (Ac-LRMMLPK-NH2) [AE220]
Times Baseline Response, E^k ([1]; Table 6, AE peptide 64 μM, supernatant 1:4, reduced by a factor of 5): 12.5 | Times Baseline Response, E^k [1, 3]: 1.1 | Times Baseline Response, E^d ([2]; Table 6, AE peptide 64 μM, supernatant 1:4): 2.8 | Times Baseline Response, E^d [2, 3]: 12.0

Ac-YRMKL-NH2 [AE116]
Times Baseline Response, E^k [1, 4]: 3.2 | Times Baseline Response, E^k [1, 5]: 15.5 | Times Baseline Response, E^d [2, 6]: 2.1 | Times Baseline Response, E^d [2, 7]: 7.1

Ac- (mL) RMKLPK-NH2 [AE174]
Times Baseline Response, E^k [1, 8]: 1.6 | Times Baseline Response, E^k [1, 9]: 3.1 | Times Baseline Response, E^k [1, 10]: 9.8 | Times Baseline Response, E^k [1, 11]: 35.1 | Times Baseline Response, E^k [1, 12]: 34.3 | Times Baseline Response, E^d [2, 8]: 1 | Times Baseline Response, E^d [2, 9]: 2 | Times Baseline Response, E^d [2, 10]: 40 | Times Baseline Response, E^d [2, 11]: 55 | Times Baseline Response, E^d [2, 12]: 15.9

Ac-YRMKLPK-NH2 [AE113]
Times Baseline Response, E^k [1, 4]: 6.7 | Times Baseline Response, E^k [1, 5]: 15.5 | Times Baseline Response, Ek ([1]; Table 3, AE peptide 64 μM, supernatant 1:4, values reduced relative to E^d by a factor of 10): 24.9 | Times Baseline Response, E^d [2, 6]: 23.1 | Times Baseline Response, E^d [2, 7]: 36.3 | Times Baseline Response, Ed ([2]; Table 3, AE peptide 64 μM, supernatant 1:4): 12.3

Ac-ARMKNPK-NH2 [AE345]
Times Baseline Response, E^k [1, 13]: 4.8 | Times Baseline Response, E^d [2, 13]: 3.7

Ac-YRMKLP-NH2 [AE115]
Times Baseline Response, E^k [1, 4]: 3.8 | Times Baseline Response, E^k [1, 5]: 18.6 | Times Baseline Response, E^d [2, 6]: 5.7 | Times Baseline Response, E^d [2, 7]: 19.9

Ac-LR (mL) KyPk-NH2 [AE306]
Times Baseline Response, E^k [1, 12]: 13.7 | Times Baseline Response, E^d [2, 12]: 3.2

Ac-LRMK Q PK-NH2 (Ac-LRMKQPK-NH2) [AE233]
Times Baseline Response, E^k [1, 14]: 17.0 | Times Baseline Response, E^d [2, 15]: 11.5

Ac-Y[Cit]MKLPKSAK-NH2 [AE131]
Times Baseline Response, E^k [1, 16]: 0.8 | Times Baseline Response, E^k [1, 13]: 4.1 | Times Baseline Response, E^d [2, 16]: 2.8 | Times Baseline Response, E^d [2, 13]: 1.6

Ac-LRNKNPF-NH2 [AE348]
Times Baseline Response, E^k [1, 13]: 6.3 | Times Baseline Response, E^d [2, 13]: 13.1

Ac-ARMKLPKSAK-NH2 [AE120]
Times Baseline Response, E^k ([1]; Table 10, AE peptide 64 μM, supernatant 1:2 (first value)): 36.8 | Times Baseline Response, E^k ([1]; Table 10, AE peptide 64 μM, supernatant 1:4 (second value)): 34.9 | Times Baseline Response, E^k [1, 13]: 4.8 | Times Baseline Response, E^d ([2]; Table 10, AE peptide 16 μM (second value), supernatant 1:2): 18.1 | Times Baseline Response, E^d ([2]; Table 10, AE peptide 64 μM (first value), supernatant 1:2): 35.4 | Times Baseline Response, E^d [2, 13]: 19.4

Ac-LRMK (mL) PK-NH2 [AE175]
Times Baseline Response, E^k [1, 8]: 2.8 | Times Baseline Response, E^k [1, 9]: 6.5 | Times Baseline Response, E^k [1, 10]: 28.5 | Times Baseline Response, E^k [1, 11]: 59.0 | Times Baseline Response, E^k [1, 12]: 58.0 | Times Baseline Response, E^d [2, 8]: 1 | Times Baseline Response, E^d [2, 9]: 6 | Times Baseline Response, E^d [2, 10]: 36 | Times Baseline Response, E^d [2, 11]: 61 | Times Baseline Response, E^d [2, 12]: 15.9

Ac-LRMK Y PK-NH2 (Ac-LRMKYPK-NH2; not fully specified; printed as Ac-LRMK Y PK-NH2) [AE235]
Times Baseline Response, E^k [1, 14]: 21.8 | Times Baseline Response, E^k [1, 12]: 56.6 | Times Baseline Response, E^k [1, 13]: 47.7 | Times Baseline Response, E^k [1, 3]: 8.4 | Times Baseline Response, E^k ([1]; Table 17, AE peptide 64 μM, supernatant 1:4): 26.8 | Times Baseline Response, E^k [1, 17]: 56.6 | Times Baseline Response, E^d [2, 15]: 14.6 | Times Baseline Response, E^d [2, 12]: 12.5 | Times Baseline Response, E^d [2, 13]: 29.4 | Times Baseline Response, E^d [2, 3]: 14.3 | Times Baseline Response, E^d ([2]; Table 17, AE peptide 4 μM, supernatant 1:4): 51 | Times Baseline Response, E^d [2, 17]: 12.5

Ac-Y E MKLPKSAK-NH2 [AE136]
Times Baseline Response, E^k [1, 16]: 0.7 | Times Baseline Response, E^d [2, 16]: 0.9

Ac-YRMKL hydrP KSAK-NH2 (Ac-YRMKL[hydrP]KSAK-NH2) [AE143]
Times Baseline Response, E^k ([1]; Table 8, AE peptide 4 μM (third), supernatant 1:4): 0.98 | Times Baseline Response, E^k ([1]; Table 8, AE peptide 16 μM (second), supernatant 1:4): 1.5, | Times Baseline Response, E^k ([1]; Table 8, AE peptide 64 μM (first), supernatant 1:4): 4.2, | Times Baseline Response, E^d ([2]; Table 8, AE peptide 4 μM (third), supernatant 1:8): 8.0 | Times Baseline Response, E^d ([2]; Table 8, AE peptide 16 μM (second), supernatant 1:8): 19.6, | Times Baseline Response, E^d ([2]; Table 8, AE peptide 64 μM (first), supernatant 1:8): 19.4,

Ac-LRLKyPK-NH2 [AE308]
Times Baseline Response, E^k [1, 12]: 45.5 | Times Baseline Response, E^d [2, 12]: 12.6

Ac-LDSLRMKLPKSAK-NH2 [AE153]
Times Baseline Response, E^k [1, 18]: 1.4 | Times Baseline Response, E^d [2, 19]: 8.5

Ac-DSLRMKLPKSAK-NH2 [AE154]
Times Baseline Response, E^k [1, 18]: 2.2 | Times Baseline Response, E^d [2, 19]: 15.1

Ac-LR N KLPK-NH2 (Ac-LRNKLPK-NH2) [AE202]
Times Baseline Response, E^k ([1]; Table 5, AE peptide 64 μM, supernatant 1:4, normalized to E^d by a factor of 10): 9.3 | Times Baseline Response, E^k [1, 13]: 5.8 | Times Baseline Response, E^d ([2]; Table 5, AE peptide 64 μM, supernatant 1:4): 18.2 | Times Baseline Response, E^d [2, 13]: 34.4

Ac-LRMK Cit PK-NH2 (Ac-LRMK[Cit]PK-NH2; SMILES CSCC[C@H](NC(=O)[C@H](CCCNC(=N)N)NC(=O)[C@H](CC(C)C)NC(C)=O)C(=O)N[C@@H](CCCCN)C(=O)N[C@@H](CCCNC(N)=O)C(=O)N1CCC[C@H]1C(=O)N[C@@H](CCCCN)C(N)=O) [AE226]
Times Baseline Response, E^k [1, 14]: 9.0 | Times Baseline Response, E^d [2, 15]: 9.0

Ac-LR (mL) KYPk-NH2 [AE305]
Times Baseline Response, E^k [1, 12]: 26.8 | Times Baseline Response, E^d [2, 12]: 5.2

Ac-LRMK l PK-NH2 [AE164]
Times Baseline Response, E^k [1, 20]: 3.8 | Times Baseline Response, E^k [1, 12]: 43.9 | Times Baseline Response, E^d [2, 21]: 17.7 | Times Baseline Response, E^d [2, 12]: 12.9

Ac-LR m KLPK-NH2 [AE162]
Times Baseline Response, E^k [1, 20]: 1.3 | Times Baseline Response, E^d [2, 21]: 2.2

Ac-LRMK[Orn]PK-NH2 [AE225]
Times Baseline Response, E^k [1, 14]: 13.9 | Times Baseline Response, E^d [2, 15]: 10.4

Ac-LRMKLP[Cit]-NH2 [AE241]
Times Baseline Response, E^k ([1]; Table 9, AE peptide 64 μM, supernatant 1:4, normalized by a factor of 5): 12.2 | Times Baseline Response, E^k [1, 3]: 1.0 | Times Baseline Response, E^d ([2]; Table 9, AE peptide 64 μM, supernatant 1:4): 3.4 | Times Baseline Response, E^d [2, 3]: 7.1

Ac-Y Q MKLPKSAK-NH2 [AE138]
Times Baseline Response, E^k [1, 16]: 0.8 | Times Baseline Response, E^d [2, 16]: 0.7

Ac-LRMKLPKSAK-NH2 [AE110]
Times Baseline Response, E^k [1, 4]: 2.1 | Times Baseline Response, E^k [1, 5]: 7.6 | Times Baseline Response, E^k [1, 18]: 19.1 | Times Baseline Response, E^d [2, 6]: 27.8 | Times Baseline Response, E^d [2, 7]: 47.1 | Times Baseline Response, E^d [2, 19]: 23.8

Ac-LRMK M PK-NH2 (Ac-LRMKMPK-NH2) [AE236]
Times Baseline Response, E^k [1, 14]: 16.9 | Times Baseline Response, E^d [2, 15]: 15.2
